According to patent US10239882B2, “Substituted 5-methyl-[1,2,4]triazolo[1,5-a]pyrimidin-2-amine compounds as PDE2 inhibitors” (DART NEUROSCIENCE (CAYMAN) LTD., priority 2014, dated 2019):

target: FLAG-tagged PDE2A1 (amino acids 2-941) (Homo sapiens (Human), UniProt O00408); assay: IMAP TR-FRET PDE2A enzymatic assay; assay type: biochemical; conditions: 200 nM FAM-cAMP substrate, 11-point half-log dose-response
From the text: An IMAP TR-FRET-based phosphodiesterase assay was developed using the PDE2A isoform. IMAP technology is based on high-affinity binding of phosphate by immobilized metal (MIII) coordination complexes on nanoparticles. The IMAP “binding reagent” recognizes phosphate groups on AMP or GMP generated from cAMP or cGMP in a PDE reaction. Cyclic nucleotides that carry a phosphodiester bond and not a free phosphate are not recognized by the binding reagent. The time resolved fluorescence resonance energy transfer (TR-FRET) is afforded by a Terbium (Tb)-Donor pre-bound to the nanoparticles. FRET occurs when the fluorescent-labeled AMP or GMP product of a PDE reaction binds and comes into close proximity to the Tb-Donor complex. Due to the long lifetime of Tb fluorescence, detection can be run in time-resolved mode to reduce or eliminate interference from auto-fluorescent compounds.
The IMAP TR-FRET PDE2A assay was performed in 1536-well white plates. A total of 250 pg per well of FLAG-tagged PDE2A1 (amino acids 2-941) was dispensed in 2.5 μL IMAP assay buffer consisting of 10 mM Tris pH 7.2, 10 mM MgCl2, 1 mM DTT, and 0.1% fatty acid free BSA. 30 nL of compound was then added from 1 mM stocks in DMSO using a Kalypsys Pintool. Plates were incubated for 5 min at room temperature before dispensing 1.5 μL of 533 nM FAM-cAMP substrate for a final concentration of 200 nM. Following a brief centrifugation, plates were incubated for 30 min at room temperature. The assay was terminated by adding 5 μL IMAP binding reagent Tb complex to each well which was prepared according to manufacturer's recommendations (Molecular Devices). Plates were incubated an additional 90 minutes at room temperature and read on a Viewlux plate reader. All compounds were solvated at a concentration of 10 mM in DMSO and tested in 11-point half-log dose-response. Curve fitting and IC50 values were determined using a standard four parameter fit.

Sequence of FLAG-tagged PDE2A1 (amino acids 2-941) (O00408 2-941): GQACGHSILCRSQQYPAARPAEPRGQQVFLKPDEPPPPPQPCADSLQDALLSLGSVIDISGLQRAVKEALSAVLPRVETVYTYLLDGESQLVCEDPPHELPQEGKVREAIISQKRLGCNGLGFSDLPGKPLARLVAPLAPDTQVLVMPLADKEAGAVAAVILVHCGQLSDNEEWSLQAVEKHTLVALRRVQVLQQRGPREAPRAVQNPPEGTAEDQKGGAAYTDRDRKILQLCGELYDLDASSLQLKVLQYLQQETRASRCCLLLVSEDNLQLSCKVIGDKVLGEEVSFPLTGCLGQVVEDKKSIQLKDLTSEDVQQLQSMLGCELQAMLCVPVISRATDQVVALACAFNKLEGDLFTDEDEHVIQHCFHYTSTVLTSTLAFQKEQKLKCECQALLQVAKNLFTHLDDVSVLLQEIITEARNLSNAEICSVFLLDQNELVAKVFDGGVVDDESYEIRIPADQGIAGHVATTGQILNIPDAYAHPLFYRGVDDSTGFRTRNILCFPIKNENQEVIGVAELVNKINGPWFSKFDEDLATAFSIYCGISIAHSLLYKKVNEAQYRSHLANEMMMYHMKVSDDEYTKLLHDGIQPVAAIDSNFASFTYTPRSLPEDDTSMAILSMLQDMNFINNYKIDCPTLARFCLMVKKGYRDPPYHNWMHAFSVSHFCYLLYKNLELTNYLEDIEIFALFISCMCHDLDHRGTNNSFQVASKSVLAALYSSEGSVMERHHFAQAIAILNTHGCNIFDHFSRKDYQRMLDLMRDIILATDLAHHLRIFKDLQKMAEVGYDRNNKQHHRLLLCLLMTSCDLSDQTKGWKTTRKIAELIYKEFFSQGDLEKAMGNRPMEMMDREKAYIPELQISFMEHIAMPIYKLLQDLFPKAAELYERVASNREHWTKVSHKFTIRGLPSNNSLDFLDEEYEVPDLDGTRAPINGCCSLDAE

| Compound | PDE2 (PIC50) |
| --- | --- |
| Cc1cc(C2CCOCC2)n2nc(NCc3cc(Cl)ccc3F)nc2n1 [Example 13, N-(5-Chloro-2-fluorobenzyl)-5-methyl-7-(tetrahydro-2H-pyran-4-yl)-[1,2,4]triazolo[1,5-a]pyrimidin-2-amine] | >7 |
| COc1ccc(CNc2nc3nc(C)cc(C4CCOCC4)n3n2)c(F)c1 [Example 15, N-[(2-Fluoro-4-methoxyphenyl)methyl]-5-methyl-7-(oxan-4-yl)-[1,2,4]triazolo[1,5-a]pyrimidin-2-amine] | >7 |
| Cc1cc(C2CCOCC2)n2nc(NCc3cnn(-c4ccccc4)c3)nc2n1 [Example 17, 5-Methyl-7-(oxan-4-yl)-N-[(1-phenyl-1H-pyrazol-4-yl)methyl]-[1,2,4]triazolo[1,5-a]pyrimidin-2-amine] | >7 |
| COc1ccc(CNc2nc3nc(C)cc(C4CCN(C(C)=O)CC4)n3n2)cc1C(F)F [Example 19, 1-{4-[2-({[3-(Difluoromethyl)-4-methoxyphenyl]methyl}amino)-5-methyl-[1,2,4]triazolo[1,5-a]pyrimidin-7-yl]piperidin-1-yl}ethan-1-one] | >7 |
| CC(=O)N1CCC(c2cc(C)nc3nc(NCc4cccc(C(F)F)c4)nn23)CC1 [Example 20, 1-{4-[2-({[3-(Difluoromethyl)phenyl]methyl}amino)-5-methyl-[1,2,4]triazolo[1,5-a]pyrimidin-7-yl]piperidin-1-yl}ethan-1-one] | >7 |
| COc1ccc(CNc2nc3nc(C)cc(C4CCOCC4)n3n2)cc1Cl [Example 21, N-[(3-Chloro-4-methoxyphenyl)methyl]-5-methyl-7-(oxan-4-yl)-[1,2,4]triazolo[1,5-a]pyrimidin-2-amine] | >7 |
| Cc1cc(C2CCOCC2)n2nc(NCc3cccc(C(F)F)c3)nc2n1 [Example 23, N-{[3-(Difluoromethyl)phenyl]methyl}-5-methyl-7-(oxan-4-yl)-[1,2,4]triazolo[1,5-a]pyrimidin-2-amine] | >7 |
| COc1ccc(CNc2nc3nc(C)cc(C4CCOCC4)n3n2)cc1C(F)F [Example 25, N-{[3-(Difluoromethyl)-4-methoxyphenyl]methyl}-5-methyl-7-(oxan-4-yl)-[1,2,4]triazolo[1,5-a]pyrimidin-2-amine] | >7 |
| COc1ccc(CNc2nc3nc(C(F)F)cc(C4CCOCC4)n3n2)cc1 [Example 29, 5-(Difluoromethyl)-N-[(4-methoxyphenyl)methyl]-7-(oxan-4-yl)-[1,2,4]triazolo[1,5-a]pyrimidin-2-amine] | >7 |
| COc1ccc(CNc2nc3nc(CF)cc(C4CCOCC4)n3n2)cc1 [Example 30, 5-(Fluoromethyl)-N-[(4-methoxyphenyl)methyl]-7-(oxan-4-yl)-[1,2,4]triazolo[1,5-a]pyrimidin-2-amine] | >7 |
| COc1cccc(-n2cc(CNc3nc4nc(C)cc(C5CCOCC5)n4n3)cn2)c1 [Example 31, N-{[1-(3-Methoxyphenyl)-1H-pyrazol-4-yl]methyl}-5-methyl-7-(oxan-4-yl)-[1,2,4]triazolo[1,5-a]pyrimidin-2-amine] | >7 |

same assay, conditions: 200 nM FAM-cAMP substrate, 11-point half-log dose-response, read-out: PDE2 (PIC50)

| Compound | IC50 [nM] |
| --- | --- |
| COc1ccc(CNc2nc3nc(C)cc(C4CCOCC4)n3n2)cc1 [Example 1, N-(4-Methoxybenzyl)-5-methyl-7-(tetrahydro-2H-pyran-4-yl)-[1,2,4]triazolo[1,5-a]pyrimidin-2-amine] | 100 to 1000 |
| Cc1cc(C2CC2)n2nc(NCc3ccc4c(c3)CCO4)nc2n1 [Example 2, 7-Cyclopropyl-N-((2,3-dihydrobenzofuran-5-yl)methyl)-5-methyl-[1,2,4]triazolo[1,5-a]pyrimidin-2-amine] | 1000 to 10000 |
| Cc1cc(C2CC2)n2nc(NCc3ccc4c(c3)OCC4)nc2n1 [Example 3, 7-Cyclopropyl-N-((2,3-dihydrobenzofuran-6-yl)methyl)-5-methyl-[1,2,4]triazolo[1,5-a]pyrimidin-2-amine] | 1000 to 10000 |
| COc1ccc(CNc2nc3nc(C)cc(C4CC4)n3n2)cc1 [Example 4, 7-Cyclopropyl-N-(4-methoxybenzyl)-5-methyl-[1,2,4]triazolo[1,5-a]pyrimidin-2-amine] | 1000 to 10000 |
| Cc1cc(C2CCCC2)n2nc(NCc3ccc4c(c3)CCC4)nc2n1 [Example 5, 7-Cyclopentyl-N-((2,3-dihydro-1H-inden-5-yl)methyl)-5-methyl-[1,2,4]triazolo[1,5-a]pyrimidin-2-amine] | 100 to 1000 |
| Cc1cc(C(C)C)n2nc(NCc3ccc4c(c3)CCC4)nc2n1 [Example 6, N-((2,3-Dihydro-1H-inden-5-yl)methyl)-7-isopropyl-5-methyl-[1,2,4]triazolo[1,5-a]pyrimidin-2-amine] | 100 to 1000 |
| Cc1cc(C(C)C)n2nc(NCc3cccc(Cl)c3)nc2n1 [Example 7, N-(3-Chlorobenzyl)-7-isopropyl-5-methyl-[1,2,4]triazolo[1,5-a]pyrimidin-2-amine] | 1000 to 10000 |
| Cc1cc(C(C)C)n2nc(NCc3ccccc3)nc2n1 [Example 8, N-Benzyl-7-isopropyl-5-methyl-[1,2,4]triazolo[1,5-a]pyrimidin-2-amine] | 1000 to 10000 |
| Cc1cc(C(C)(C)C)n2nc(NCc3cccc(Cl)c3)nc2n1 [Example 9, 7-(tert-Butyl)-N-(3-chlorobenzyl)-5-methyl-[1,2,4]triazolo[1,5-a]pyrimidin-2-amine] | 100 to 1000 |
| COc1ccc(CNc2nc3nc(C)cc(C(C)C)n3n2)cc1 [Example 10, 7-Isopropyl-N-(4-methoxybenzyl)-5-methyl-[1,2,4]triazolo[1,5-a]pyrimidin-2-amine] | 1000 to 10000 |
| CCC(C)c1cc(C)nc2nc(NCc3ccc(OC)cc3)nn12 (stereo not shown) [Example 11, 7-(sec-butyl)-N-(4-Methoxybenzyl)-5-methyl-[1,2,4]triazolo[1,5-a]pyrimidin-2-amine] | 100 to 1000 |
| COc1ccc(CNc2nc3nc(C)cc(C4CCCO4)n3n2)cc1 (stereo not shown) [Example 12, N-(4-Methoxybenzyl)-5-methyl-7-(tetrahydrofuran-2-yl)-[1,2,4]triazolo[1,5-a]pyrimidin-2-amine] | 1000 to 10000 |
| Cc1cc(C2CCOCC2)n2nc(NCc3cc(F)cc(F)c3)nc2n1 [Example 14, N-[(3,5-Difluorophenyl)methyl]-5-methyl-7-(oxan-4-yl)-[1,2,4]triazolo[1,5-a]pyrimidin-2-amine] | 100 to 1000 |
| Cc1cc(C2CCOCC2)n2nc(NCc3ccc4c(c3)OCCO4)nc2n1 [Example 16, N-(2,3-Dihydro-1,4-benzodioxin-6-ylmethyl)-5-methyl-7-(oxan-4-yl)-[1,2,4]triazolo[1,5-a]pyrimidin-2-amine] | 100 to 1000 |
| COc1ccc(CNc2nc3nc(C)cc(C4CCN(C(C)=O)CC4)n3n2)cc1 [Example 18, 1-[4-(2-[(4-Methoxyphenyl)methyl]amino-5-methyl-[1,2,4]triazolo[1,5-a]pyrimidin-7-yl)piperidin-1-yl]ethan-1-one] | 100 to 1000 |
| COc1ccc(CNc2nc3nc(C)cc(C4CCC(F)(F)CC4)n3n2)cc1 [Example 22, 7-(4,4-Difluorocyclohexyl)-N-[(4-methoxyphenyl)methyl]-5-methyl-[1,2,4]triazolo[1,5-a]pyrimidin-2-amine] | 100 to 1000 |
| COc1cccc(CNc2nc3nc(C)cc(C4CCOCC4)n3n2)c1 [Example 24, N-[(3-Methoxyphenyl)methyl]-5-methyl-7-(oxan-4-yl)-[1,2,4]triazolo[1,5-a]pyrimidin-2-amine] | 100 to 1000 |
| Cc1cc(C2CCOCC2)n2nc(NCc3ccccc3F)nc2n1 [Example 26, N-[(2-Fluorophenyl)methyl]-5-methyl-7-(oxan-4-yl)-[1,2,4]triazolo[1,5-a]pyrimidin-2-amine] | 100 to 1000 |
| Cc1ccc(F)c(CNc2nc3nc(C)cc(C4CCOCC4)n3n2)c1 [Example 27, N-[(2-Fluoro-5-methylphenyl)methyl]-5-methyl-7-(oxan-4-yl)-[1,2,4]triazolo[1,5-a]pyrimidin-2-amine] | 100 to 1000 |
| Cc1cccc(CNc2nc3nc(C)cc(C4CCOCC4)n3n2)c1 [Example 28, 5-Methyl-N-[(3-methylphenyl)methyl]-7-(oxan-4-yl)-[1,2,4]triazolo[1,5-a]pyrimidin-2-amine] | 100 to 1000 |
| COc1ccc(F)c(CNc2nc3nc(C)cc(C4CCOCC4)n3n2)c1 [Example 32, N-[(2-Fluoro-5-methoxyphenyl)methyl]-5-methyl-7-(oxan-4-yl)-[1,2,4]triazolo[1,5-a]pyrimidin-2-amine] | 100 to 1000 |
| Cc1cc(C2CCOCC2)n2nc(NCc3ccccc3)nc2n1 [Example 33, N-Benzyl-5-methyl-7-(oxan-4-yl)-[1,2,4]triazolo[1,5-a]pyrimidin-2-amine] | 100 to 1000 |
| COc1ccc(CNc2nc3nc(C)cc(C4(C)CCOCC4)n3n2)cc1 [Example 34, N-[(4-Methoxyphenyl)methyl]-5-methyl-7-(4-methyloxan-4-yl)-[1,2,4]triazolo[1,5-a]pyrimidin-2-amine] | 100 to 1000 |
